The record followed here is patent US6723753B2, “Substituted n-benzyl-n-phenyl aminoalcohol compounds useful for inhibiting cholesteryl ester transfer protein activity” (Pharmacia Corporation, priority 2002, dated 2004).

For orientation: IC50 means the concentration at which inhibition is half-maximal.

The first assay addresses T1, CETP (Homo sapiens, UniProt P11597).
T1 sequence (P11597 18-493): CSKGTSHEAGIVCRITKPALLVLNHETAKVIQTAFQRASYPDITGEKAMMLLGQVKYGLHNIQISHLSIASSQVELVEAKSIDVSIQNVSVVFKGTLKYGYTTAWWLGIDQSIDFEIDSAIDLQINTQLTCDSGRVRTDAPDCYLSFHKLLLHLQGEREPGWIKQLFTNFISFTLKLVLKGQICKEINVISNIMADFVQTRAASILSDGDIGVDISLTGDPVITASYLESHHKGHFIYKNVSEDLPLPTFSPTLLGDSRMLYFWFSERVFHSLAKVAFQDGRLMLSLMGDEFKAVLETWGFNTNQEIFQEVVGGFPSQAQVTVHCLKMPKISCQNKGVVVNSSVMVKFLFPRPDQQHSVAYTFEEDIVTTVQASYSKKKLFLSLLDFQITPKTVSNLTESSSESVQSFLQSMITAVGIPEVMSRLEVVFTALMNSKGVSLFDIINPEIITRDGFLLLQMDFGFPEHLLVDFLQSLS
Kind of assay: Assay of CETP Inhibition in Human Plasma. Type of assay: biochemical. Also on record: Blood was obtained from healthy volunteers, recruited from the personnel of Monsanto Company; from tissue; host or cells: human EDTA plasma pool from healthy volunteers. As to conditions: IC50, Inhibition of CETP activity in human plasma assay; transfer of [3H]CE from HDL to VLDL and LDL. As to the method:
Assay of CETP Inhibition in Human Plasma
Blood was obtained from healthy volunteers, recruited from the personnel of Monsanto Company, Saint Louis, Mo. Blood was collected in tubes containing EDTA (EDTA plasma pool). The EDTA human plasma pool, previously stored at −20° C., was thawed at room temperature and centrifuged for 5 minutes to remove any particulate matter. […] Equal volumes (396 μL) of the plasma containing the [^3H]CE-HDL were added by pipette into micro tubes (Titertube®, Bio-Rad laboratories, Hercules, Calif.). Inhibitor compounds, dissolved as 20-50 mM stock solutions in DMSO, were serially diluted in DMSO (or an alternative solvent in some cases, such as dimethylformamide or ethanol). Four μL of each of the serial dilutions of inhibitor compounds or DMSO alone were then added to each of the tubes containing plasma (396 μL). After mixing, triplicate aliquots (100 μL) from each plasma tube were then transferred to wells of 96-well round-bottomed polystyrene microtiter plates (Corning, Corning, N.Y.). Plates were sealed with plastic film and incubated at 37° C. for 4 hours. “Test” samples contained plasma with dilutions of inhibitor compounds. “Control” samples contained plasma with DMSO diluted to the same concentration as the test samples, but without inhibitor. “Blank” samples were prepared as “control” samples, but were left in the micro tubes at 4° C. for the 4 hour incubation and were then added to the microtiter wells at the end of the incubation period. VDL and LDL were precipitated by the addition of 10 μL of precipitating reagent (1% (w/v) dextran sulfate (Dextralip50)/0.5 M magnesium chloride, pH 7.4) to all wells. The wells were mixed on a plate mixer and then incubated at ambient temperature for 10 min. The plates were then centrifuged at 1000× g for 30 min at 10° C. The supernatants (50 μL) from each well were then transferred to Picoplate™ 96 plate wells (Packard, Meriden, Conn.) containing Microscint™-40 (Packard, Meriden, Conn.). The plates were heat-sealed (TopSeal™-P, Packard, Meriden, Conn.) according to the manufacturer's directions and mixed for 30 min. Radioactivity was measured on a microplate scintillation counter (TopCount, Packard, Meriden, Conn.). The maximum percentage transfer in the control wells (% transfer) was determined using the following equation: [formula]
The percentage of transfer relative to the control (% control) was determined in the wells containing inhibitor compounds was determined as follows: [formula]
IC50 values were then calculated from plots of % control versus concentration of inhibitor compound.
Compound `OC(CN(Cc1ccc(OC(F)(F)F)cc1)c1cccc(Oc2ccccc2)c1)C(F)(F)F` (stereo not drawn) [Example 63] came in with an IC50 of 120 µM.

Staying with this assay, now noted: Inhibition of CETP activity in human plasma assay; transfer of [3H]CE from HDL to VLDL and LDL; read-out: IC50.
In the case of `Cc1ccc(CN(CC(O)C(F)(F)F)c2cccc(F)c2)cc1` (stereo not drawn) [Example 33], the IC50 is 500 µM.

Regarding `OC(CN(Cc1cccc(C(F)(F)F)c1)c1ccccc1)C(F)(F)F` (stereo not drawn) [Example 35], the IC50 was above 200 µM. The same measure, in the same setting: the value for `OC(CN(Cc1cccc(OC(F)(F)F)c1)c1cccc(Br)c1)C(F)(F)F` (stereo not drawn) [Example 36] was above 200 µM. As to `OC(CN(Cc1cccc(OC(F)(F)F)c1)c1cccc(C(F)(F)F)c1)C(F)(F)F` (stereo not drawn) [Example 42], the IC50 was 80 µM. Same read-out and setting: in the case of `OC(CN(Cc1cccc(OC(F)(F)C(F)F)c1)c1cccc(F)c1)C(F)(F)F` (stereo not drawn) [Example 43] it was 110 µM.

`OC(CN(Cc1cccc(-c2ccccc2C(F)(F)F)c1)c1cccc(Oc2ccccc2)c1)C(F)(F)F` (stereo not drawn) [Example 600, 3-[(3-phenoxyphenyl)[[2′-(trifluoromethyl)[1,1′-biphenyl]-3-yl]methyl]amino]-1,1,1-trifluoro-2-propanol]: the IC50 is above 100 µM.

For a further assay, the target named is T1, CETP. Kind of assay: Assay of CETP Inhibition using Purified Components (Reconstituted Buffer Assay). Type of assay: biochemical. Also on record: made in house; host or cells: CHO cells (serum-free conditioned medium). As to conditions: IC50, Inhibition of CETP activity in reconstituted buffer assay; transfer of [3H]CE from HDL to LDL. The method in brief:
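Purified human recombinant CETP from transfected CHO cells was incubated with [^3H]CE-labeled HDL donor and LDL acceptor in Tris pH 7.4/NaCl/EDTA/1% BSA buffer for 2 h at 37 °C. LDL was then precipitated with dextran sulfate/MgCl2, filtered, and counted by liquid scintillation to give IC50 for CE transfer.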
Take `OC(CN(Cc1ccc(OC(F)(F)F)cc1)c1cccc(Oc2ccccc2)c1)C(F)(F)F` (stereo not drawn) [Example 63]: the IC50 turned out to be 3.5 µM.

Consider `OC(CN(Cc1cccc(OC(F)(F)F)c1)Cc1cccc(OC(F)(F)F)c1)C(F)(F)F` (stereo not drawn) [compound 192], for which the midpoint of inhibition, the IC50, lay at 23 µM. The same measure, in the same setting: the value for `OC(CN(Cc1cccc(Oc2ccccc2)c1)Cc1cccc(OC(F)(F)F)c1)C(F)(F)F` (stereo not drawn) [compound 195] was 30 µM.

Staying with this assay, now noted: Inhibition of CETP activity in reconstituted buffer assay; transfer of [3H]CE from HDL to LDL; read-out: IC50.
For the compound `Cc1ccc(CN(CC(O)C(F)(F)F)c2cccc(F)c2)cc1` (stereo not drawn) [Example 33], the IC50 is 15 µM. Still for that read-out and setting: in the case of `OC(CN(Cc1cccc(C(F)(F)F)c1)c1ccccc1)C(F)(F)F` (stereo not drawn) [Example 35] it was 16 µM; in that of `OC(CN(Cc1cccc(OC(F)(F)F)c1)c1cccc(Br)c1)C(F)(F)F` (stereo not drawn) [Example 36], 4 µM; in that of `OC(CN(Cc1cccc(OC(F)(F)F)c1)c1cccc(C(F)(F)F)c1)C(F)(F)F` (stereo not drawn) [Example 42], 7 µM. Same read-out and setting: the value for `OC(CN(Cc1cccc(OC(F)(F)C(F)F)c1)c1cccc(F)c1)C(F)(F)F` (stereo not drawn) [Example 43] was 4 µM. Still for that read-out and setting: the value for `OC(CN(Cc1ccc(F)cc1)Cc1ccc(C(F)(F)F)cc1)C(F)(F)F` (stereo not drawn) [compound 170] was above 100 µM; that for `OC(CN(Cc1ccc(C(F)(F)F)cc1)Cc1ccccc1F)C(F)(F)F` (stereo not drawn) [compound 171] was above 100 µM.

As to `OC(CN(Cc1ccc(C(F)(F)F)cc1)Cc1cccc(Cl)c1)C(F)(F)F` (stereo not drawn) [compound 172], the IC50 stood at 7 µM.

Turning to `OC(CN(Cc1ccc(Cl)cc1)Cc1ccc(C(F)(F)F)cc1)C(F)(F)F` (stereo not drawn) [compound 173], the IC50 is 20 µM. Consider `OC(CN(Cc1ccc(C(F)(F)F)cc1)Cc1ccccc1Cl)C(F)(F)F` (stereo not drawn) [compound 174], for which the IC50 is above 100 µM. On the same count and under the same terms, in the case of `OC(CN(Cc1cccc(Cl)c1)Cc1ccccc1C(F)(F)F)C(F)(F)F` (stereo not drawn) [compound 175] it was above 100 µM; in that of `OC(CN(Cc1ccc(Cl)cc1)Cc1ccccc1C(F)(F)F)C(F)(F)F` (stereo not drawn) [compound 176], above 100 µM.

As for `OC(CN(Cc1ccccc1Cl)Cc1ccccc1C(F)(F)F)C(F)(F)F` (stereo not drawn) [compound 177], the IC50 is above 100 µM. As to `Cc1ccc(CN(Cc2cccc(F)c2)CC(O)C(F)(F)F)cc1` (stereo not drawn) [compound 178], the IC50 was above 100 µM. Regarding `Cc1ccc(CN(Cc2ccc(F)cc2)CC(O)C(F)(F)F)cc1` (stereo not drawn) [compound 179], the 50% inhibitory concentration (IC50) is above 100 µM. As to `Cc1cccc(CN(Cc2cccc(F)c2)CC(O)C(F)(F)F)c1` (stereo not drawn) [compound 180], the IC50 is above 100 µM. On the same count and under the same terms, in the case of `Cc1ccc(CN(Cc2ccccc2F)CC(O)C(F)(F)F)cc1` (stereo not drawn) [compound 181] it was above 100 µM. Same read-out and setting: the value for `Cc1cccc(CN(Cc2ccc(F)cc2)CC(O)C(F)(F)F)c1` (stereo not drawn) [compound 182] was above 100 µM; that for `Cc1cccc(CN(Cc2ccccc2F)CC(O)C(F)(F)F)c1` (stereo not drawn) [compound 183] was above 100 µM.

In the case of `OC(CN(Cc1cccc(C(F)(F)F)c1)Cc1ccccc1F)C(F)(F)F` (stereo not drawn) [compound 184], the IC50 is above 100 µM.

For `OC(CN(Cc1cccc(Cl)c1)Cc1cccc(C(F)(F)F)c1)C(F)(F)F` (stereo not drawn) [compound 185], the IC50 was 15 µM. On to `OC(CN(Cc1ccc(Cl)cc1)Cc1cccc(C(F)(F)F)c1)C(F)(F)F` (stereo not drawn) [compound 186], for which the IC50 turned out to be 15 µM. On the same count and under the same terms, the value for `OC(CN(Cc1cccc(C(F)(F)F)c1)Cc1ccccc1Cl)C(F)(F)F` (stereo not drawn) [compound 187] was above 100 µM; that for `OC(CN(Cc1cccc(F)c1)Cc1ccccc1C(F)(F)F)C(F)(F)F` (stereo not drawn) [compound 188] was above 100 µM.

Consider `OC(CN(Cc1ccc(F)cc1)Cc1ccccc1C(F)(F)F)C(F)(F)F` (stereo not drawn) [compound 189], for which the IC50 is above 100 µM. With `OC(CN(Cc1cccc(F)c1)Cc1cccc(C(F)(F)F)c1)C(F)(F)F` (stereo not drawn) [compound 190], the 50% inhibitory concentration (IC50) is above 100 µM. As to `OC(CN(Cc1ccc(F)cc1)Cc1cccc(C(F)(F)F)c1)C(F)(F)F` (stereo not drawn) [compound 191], the IC50 is above 100 µM. The same measure, in the same setting: in the case of `OC(CN(Cc1cccc(Cl)c1)Cc1cccc(OC(F)(F)F)c1)C(F)(F)F` (stereo not drawn) [compound 193] it was 10 µM. For the compound `OC(CN(Cc1cccc(Br)c1)Cc1cccc(OC(F)(F)F)c1)C(F)(F)F` (stereo not drawn) [compound 194], the IC50 is 7 µM. On to `OC(CN(Cc1ccc(-c2ccccc2)cc1)Cc1cccc(OC(F)(F)F)c1)C(F)(F)F` (stereo not drawn) [compound 196], for which the IC50 came to 40 µM. `O=[N+]([O-])c1cccc(CN(Cc2cccc(OC(F)(F)F)c2)CC(O)C(F)(F)F)c1` (stereo not drawn) [compound 197]: the IC50 was 18 µM.

For the compound `OC(CN(CCc1cccc(F)c1)Cc1cccc(OC(F)(F)C(F)F)c1)C(F)(F)F` (stereo not drawn) [compound 198], the IC50 amounted to 15 µM.

In the case of `COc1cc(N(Cc2cccc(C(F)(F)F)c2)CC(O)C(F)(F)F)cc(C(F)(F)F)c1` (stereo not drawn) [compound 215], the IC50 was found to be 9.2 µM. As for `OC(CN(Cc1cccc(OC(F)(F)C(F)F)c1)c1cccc(Sc2ccccc2)c1)C(F)(F)F` (stereo not drawn) [compound 290], the IC50 was determined as 8.1 µM.

In the case of `COc1ccc(Sc2cccc(N(Cc3cccc(OC(F)(F)C(F)F)c3)CC(O)C(F)(F)F)c2)cc1` (stereo not drawn) [compound 291], the IC50 is 8.4 µM. The same measure, in the same setting: the value for `CC(C)C(O)c1cccc(N(Cc2cccc(OC(F)(F)C(F)F)c2)CC(O)C(F)(F)F)c1` (stereo not drawn) [compound 584] was 1.7 µM; that for `Cc1ccc(CN(CC(O)C(F)(F)F)c2cccc(Oc3ccccc3)c2)cc1-c1ccco1` (stereo not drawn) [compound 594] was 4.2 µM; that for `CCN(C)C(=O)c1cccc(CN(CC(O)C(F)(F)F)c2cccc(Oc3ccccc3)c2)c1` (stereo not drawn) [compound 613] was 10 µM. Same read-out and setting: the value for `CCCN(C)C(=O)c1cccc(CN(CC(O)C(F)(F)F)c2cccc(Oc3ccccc3)c2)c1` (stereo not drawn) [compound 614] was above 100 µM; that for `CCCCN(C)C(=O)c1cccc(CN(CC(O)C(F)(F)F)c2cccc(Oc3ccccc3)c2)c1` (stereo not drawn) [compound 615] was above 100 µM; that for `O=C(c1cccc(CN(CC(O)C(F)(F)F)c2cccc(Oc3ccccc3)c2)c1)N1CCCC1` (stereo not drawn) [compound 616] was 18 µM. Still for that read-out and setting: in the case of `CC(C)CC(=O)c1cccc(CN(CC(O)C(F)(F)F)c2cccc(Oc3ccccc3)c2)c1` (stereo not drawn) [compound 621] it was 9.3 µM; in that of `OC(CN(Cc1cccc(OC(F)(F)C(F)F)c1)c1cc(Oc2ccc(F)cc2)cc(C(F)(F)F)c1)C(F)(F)F` (stereo not drawn) [compound 644], 1.6 µM. Turning to `OC(CN(Cc1cccc(Cl)c1)Cc1cccc(OC(F)(F)F)c1)C(F)(F)F` (stereo not drawn) [compound 694], the IC50 stood at 15 µM.
